Measurements: patent US10086007B2, “Materials and methods for treatment of cystic fibrosis and for induction of ion secretion” (priority 2012, dated 2018)

Experiments:
Caco-2 cells [1] = experiment: Ussing chamber Isc in Caco-2 cells grown on permeable inserts; format: cell-based; conditions: added to the apical side of Caco-2 cells
Protocol: Caco-2 cells are obtained from ATTC and cultured in Dulbecoo's modified Eagle's medium supplemented with 10% fetal calf serum (FCS) and 1% nonessential amino acids at 37° C. and 5% CO2. […] Cells are grown for another 10 days before they are used for functional studies.

chloride secretion = experiment: Chloride secretion with NSP4 peptide and glucose (FIG. 7); format: cell-based
ileal mucosa = format: cell-based, mouse
Text: Normally fed, 8-week-old, male NIH Swiss mice are sacrificed by CO2 inhalation, followed by cervical dislocation. The small intestine is gently removed, and the segment is washed and flushed in ice-cold Ringer's solution. Then the mucosa is separated from the serosa and the muscular layers by stripping through the submucosal plane as previously described (Zhang et al. (2007) J Physiol 581(3):1221-1233). Following exsanguinations, ileal mucosa is obtained from a 10 cm segment close to the caecum. All experiments are approved by the University of Florida Institutional Animal Care and Use Committee.
Ion transport studies are performed on ileal sheets. Tissues are then mounted in between the two halves of an Ussing type-Lucite chamber with 0.3 cm^2 exposed surface areas (P2304, Physiologic Instruments, San Diego, Calif., USA). Regular Ringer's solution (115 mM NaCl, 25 mM NaHCO3, 4.8 mM K2HPO4, 2.4 mM KH2PO4, 1.2 mM MgCl2 and 1.2 mM CaCl2) bubbled with 95% O2: 5% CO2 is used bilaterally as bathing solution for the tissues and the temperature is maintained constant at 37° C. The chambers are balanced to eliminate osmotic and hydrostatic forces. Resistance due to fluid is also compensated. The tissues are allowed to stabilize. The basal short-circuit current (Isc) and the corresponding conductance (G) are recorded using a computer controlled voltage/current clamp device (VCC MC-8, Physiologic Instruments).
The tissues are incubated with H-89 for 30 minutes. Increasing concentrations of glucose (0.015-8 mM) are added every 5 minutes and the peak current is noted. Saturation kinetic constant is calculated for the corresponding Km and Vmax for treated and untreated tissues.

Caco-2 cells [2] = experiment: Gramicidin perforated whole cell currents (patch clamp); format: cell-based; parameters: dose or concentration left out as unconfirmed; conditions: in the continued presence of glucose
NFA-sensitive current = experiment: Isc with NSP4 peptide and glucose (FIG. 6); format: cell-based
Caco-2 cells [3] = experiment: Confocal Ca2+ fluorescence microscopy (Fluo-8); format: cell-based
Protocol: Caco-2 cells are obtained from ATTC and cultured in Dulbecoo's modified Eagle's medium supplemented with 10% fetal calf serum (FCS) and 1% nonessential amino acids at 37° C. and 5% CO2. Caco-2 cells are passaged for 20-25 times and are seeded (2×10^5 cells/dish) on 5 cm petri-dishes and grown until 80% confluence, when the FCS concentration is changed to 5%. Cells are grown for another 10 days before they are used for functional studies.
Caco2 cells grown in 25 mm round coverslips are mounted on the bath chamber RC-21BR attached to series 20 stage adapter (Warner Instruments, CT USA). The cells are maintained at 37° C. using a single channel table top heater controller (TC-324B, Warner Instruments, CT USA). Cells are loaded with the fluorescent calcium indicator Fluo-8 AM dye (Cat #0203, TEFLab, Inc., Austin, Tex. USA) at 0.5 μM concentration at room temperature and incubated for 45 minutes. Confocal laser scanning microscopy is performed using an inverted Fluoview 1000 IX81 microscope (Olympus, Tokyo, Japan) and a U Plan S-Apo 20× objective. Fluorescence is recorded by argon lasers with excitation at 488 nm and emission at 515 nm. The Fluorescent images are collected with scanning confocal microscope. […] Changes are recorded and fluorescence is measured for various cells. […]

small intestine cells = experiment: Glucose-induced HCO3- secretion in small intestine cells; format: cell-based; parameters: dose or concentration left out as unconfirmed

O=C(O)c1cccnc1Nc1cccc(C(F)(F)F)c1 [NFA, niflumic acid]
inhibition of glucose-stimulated increase in Isc (Caco-2 cells [1]): significant inhibition
inhibition of chloride secretion induced by NSP4 peptide and glucose (chloride secretion): not completely inhibited
inhibition of glucose-stimulated increase in Isc (ileal mucosa; 100 μM to the lumen side, 8 mM glucose): partial inhibition
effect on glucose activated inward current (Caco-2 cells [2]): inhibits the glucose activated inward current
inhibition of anion secretion induced by NSP4 peptide and glucose (NFA-sensitive current): not completely inhibited
effect on NSP4114-135-stimulated current (NFA-sensitive current; NFA 100 μM): abolishes

O=C(CCc1ccc(O)cc1)c1c(O)cc(O)cc1O[C@@H]1O[C@H](CO)[C@@H](O)[C@H](O)[C@H]1O [phlorizin]
Isc response to increasing glucose in pre-treated tissues (ileal mucosa; tissues pre-treated with phlorizin): no response to glucose

O=S(=O)(NCCNC/C=C/c1ccc(Br)cc1)c1cccc2cnccc12 [H89, H-89]
effect on glucose-stimulated net increase in Isc (ileal mucosa; pre-treatment of small intestine cells with PKA inhibitor): significant reduction

O=C(O)CN(CC(=O)O)c1ccccc1OCCOc1ccccc1N(CC(=O)O)CC(=O)O [BAPTA]
glucose-stimulated increase in intracellular Ca^2+ after pre-incubation (Caco-2 cells [3]; pre-incubating the cells 45 minutes with BAPTA): fails to show a glucose-stimulated increase

O=C(O)c1cc([N+](=O)[O-])ccc1NCCCc1ccccc1 [NPPB]
inhibition of glucose-induced, anion channel-mediated HCO3^− secretion (small intestine cells; NPPB): significant inhibition
glucose-induced, anion channel-mediated HCO3^− secretion (small intestine cells; with NPPB): 4.2±0.7 mEq·h^−1·cm^−2

CO[C@@H]([C@H](O)[C@H](O)CO)[C@@H](O)C=O [3-OMG, 3-O-methylglucose]
intracellular Ca^2+ increase compared to similar concentration of glucose (Caco-2 cells [3]): little increase
Vmax of Isc increase (ileal mucosa; increasing concentration added to lumen side, Michaelis-Menten fit, n=6 tissues): 1.9±0.13 μeq·h^−1·cm^−2
Km (ileal mucosa; increasing concentration added to lumen side, Michaelis-Menten fit, n=6 tissues, read-out: Km of Isc increase): 220 ± 70 µM
